Article PMC10070186, “Unusual peptide-binding proteins guide pyrroloindoline alkaloid formation in crocagin biosynthesis” (Nature Chemistry, 2023)
“Also recorded” adds a separate entry of the source.

Experiments:
CgnE [1] = test: ICP-MS iron binding to CgnE; design: species or system Chondromyces crocatus CM c5; conditions: 5 mM fresh FeCl2, 30 min, PD10 desalting
Experimental: Inductively Couple Plasma-Mass Spectrometry
Experimental solutions were analysed using an Agilent 7500ce fitted with a self-aspire nebuliser tuned for a flow of 0.1 mL min-1 at the Scottish Universities Environmental Research Centre (SUERC).
Samples were initially diluted to a protein concentration of 2 µM in 0.8 M HNO3. CgnB was dialyzed 4 x for 1 h at a dilution of 1 : 5000 in buffer containing 100 mM EDTA prior to analysis. CgnE was incubated with freshly prepared FeCl2 for 30 min (5 mM final FeCl2 concentration) and then subjected to a PD10 desalting column in CgnE buffer before the protein was diluted in HNO3 for analysis. For Fe2+ analysis, flow in the collision cell was set to 2 mL min -1 of H. The metal concentration was calculated by reference to a three -standard calibration line. Each sample value was corrected for procedural blank containing ultrapure water and 0.8 M HNO 3.
CgnB and CgnE sequences were compared with TBLA STN[22] to whole-genome shotgun contigs of taxa listed in (Supplementary table 4). We have retrieved the corresponding genome segments and identified tandem appearances of homologous genes, as well as searched for candidate peptides in their genomic neigh borhood with custom Python and Perl scripts. Phylogenetic trees were constructed with RAxML[23] using the PROTGAMMAJTT model. Bootstrap values were computed using 100 bootstrap […]

CsrA = conditions: in vitro; cited from earlier work
Text: Their biosynthesis begins with the ribosomal expression of a short gene to yield a precursor peptide that usually consists of an N-terminal ‘leader’ and a C-terminal ‘core’ peptide. While the leader peptide is important for substrate recognition by the enzyme(s) installing class-defining modifications, the core peptide is ultimately converted into the final product and can be extensively modified[17]–[19]. Fe ...

CgnD [2] = test: Labeling of CgnD with PMSF (LC-MS); type: biochemical, Chondromyces crocatus CM c5; conditions: 10 µM CgnD, 10-fold excess PMSF, room temperature, 10 min
Experimental: All structural images portrayed were rendered in PyMOL (The PyMOL Molecular Graphics System Version 1.8.6.0, Schrödinger, LLC).
Purified, lyophilized 3a/b (see above) was dissolved in 20 mM sodium phosphate pH 7.2 containing 5%
D2O. A similar sample of unmodified CgnA was analyzed for comparison. 1D 1H, 2D {1H,1H} NOESY, TOCSY and DQF-COSY and 2D {13C,1H} HSQC spectra were recorded for each sample on a Bruker AVANCE IIIHD/Ultrashield 600 spectrometer equipped with a TCI cryoprobe using Bruker TopSpin 3.5 software. After excluding peaks from unmodified CgnA in the modified sample, the assignments of the C-terminal residues of the modified CgnA species were made using COSY, TOCSY and inter - residue NOE cross peaks using CCPNMR analysis assign v3. 13C shifts were identified from the HSQC spectra where sensitivity allowed. The majority of the expected resonances were easily identified, but the near-degeneracy of the former tyrosine Hα and Hβ shifts meant that the nOe cross peaks required to identify the stereochemistry at the tyrosine Cβ were not resolved. Indeed, the observation of two separate […]
Phenylmethylsulfonylfluoride (PMSF) can selectively modifying the catalytic serine of serine hydrolases via the formation of a covalent bond with the protein and can therefore be detected even in denaturing LC-MS conditions by a positive mass shift corresponding to the compound[21]. […]

CgnB, CgnC and CgnE = test: In vitro processing of CgnA and variants by CgnB, CgnC and CgnE (LC-MS); type: biochemical, Chondromyces crocatus CM c5
Experimental: All biochemical reactions were performed in 150 mM NaCl, 10 mM HEPES, 0.5 mM TCEP, pH 7.4. For CgnA–CgnB–CgnC reactions, a mixture of 50 µM CgnA, 10 µM CgnB, 5 µM CgnC, 4 mM ascorbic acid, 2.5 mM FeCl2 and 1 mM 2-oxoglutaric acid was incubated at 37 °C for 2 h. For CgnA–CgnB–CgnC–CgnE reactions, a mixture of 50 µM CgnA, 10 µM CgnB, 5 µM CgnC, 5 µM CgnE, 4 mM ascorbic acid, 2.5 mM FeCl2 and 1 mM 2-oxoglutaric acid was incubated at 37 °C for 2 h. The standard reaction volume was 50 µl. Proteins were precipitated by adding 50% acetonitrile and freezing the mixture at −80 °C for 2 h prior to liquid chromatography and mass spectrometry (LC-MS) analysis.

CgnB = test: MST binding of CgnA (or leader peptide) to CgnB; design: species or system Chondromyces crocatus CM c5
Experimental: (§1) Supplementary Figure 13: Analysis of protein complexes using SEC and MST. a MST measurements to determine KDs of the protein pairs given. X/Y – Affinity of fluorescently labeled X to Y (titrated). + Z: Z was supplied at a constant, high concentration. […]
(§2) Both samples were incubated at room temperature for 10 min prior to LC-MS analysis.
(§3) Microscale Thermophoresis
(§4) MST binding affinity measurements were performed using a Monolith NT 115 system (Nanotemper Technologies) with MO.Control v1.6 software. Labeling of different proteins was performed using the Monolith Labeling Kit RED-NHS 2nd generation according to the manufacturer’s instructions. For this, a 10 µM dilution of the desired protein was prepared in the supplied labeling buffer NHS (130 mM NaHCO3, 50 mM NaCl, pH 8.2). To yield a 600 μM dye solution, 25 μL DMSO was added to dry powder. For the labeling procedure, 7 μL of the freshly prepared dye solution was mixed with 7 μL of […]

CgnC = test: MST binding of CgnA to CgnC; design: species or system Chondromyces crocatus CM c5; conditions: CgnC titrated
Experimental: as §1, §2, §3, §4

CgnD [3] = test: MST binding to CgnD; design: species or system Chondromyces crocatus CM c5; conditions: microscale thermophoresis
Target sequence in this assay (as listed by the source): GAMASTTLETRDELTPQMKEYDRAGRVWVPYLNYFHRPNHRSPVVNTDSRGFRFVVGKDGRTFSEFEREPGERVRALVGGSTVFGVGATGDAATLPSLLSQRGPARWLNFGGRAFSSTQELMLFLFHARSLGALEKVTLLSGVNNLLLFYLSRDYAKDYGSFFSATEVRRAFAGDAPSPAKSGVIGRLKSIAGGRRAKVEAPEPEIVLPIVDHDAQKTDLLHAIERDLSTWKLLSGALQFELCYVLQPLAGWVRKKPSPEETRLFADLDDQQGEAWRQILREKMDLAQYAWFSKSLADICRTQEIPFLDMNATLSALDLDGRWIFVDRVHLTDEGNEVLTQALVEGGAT

CgnE [4] = test: MST binding of CgnA (or leader peptide) to CgnE; design: species or system Chondromyces crocatus CM c5
Experimental: as §1, §2, §3, §4
Target sequence in this assay (as listed by the source): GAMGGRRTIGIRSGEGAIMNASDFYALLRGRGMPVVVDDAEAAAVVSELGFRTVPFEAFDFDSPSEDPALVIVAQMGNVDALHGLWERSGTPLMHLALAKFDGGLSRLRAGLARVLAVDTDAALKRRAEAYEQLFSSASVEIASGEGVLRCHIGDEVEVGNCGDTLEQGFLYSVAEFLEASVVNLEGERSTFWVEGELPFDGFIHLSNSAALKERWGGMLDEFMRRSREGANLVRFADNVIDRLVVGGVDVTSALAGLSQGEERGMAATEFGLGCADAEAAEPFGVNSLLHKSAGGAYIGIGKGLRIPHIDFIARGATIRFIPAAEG

Sequence of CgnC (as listed by the source): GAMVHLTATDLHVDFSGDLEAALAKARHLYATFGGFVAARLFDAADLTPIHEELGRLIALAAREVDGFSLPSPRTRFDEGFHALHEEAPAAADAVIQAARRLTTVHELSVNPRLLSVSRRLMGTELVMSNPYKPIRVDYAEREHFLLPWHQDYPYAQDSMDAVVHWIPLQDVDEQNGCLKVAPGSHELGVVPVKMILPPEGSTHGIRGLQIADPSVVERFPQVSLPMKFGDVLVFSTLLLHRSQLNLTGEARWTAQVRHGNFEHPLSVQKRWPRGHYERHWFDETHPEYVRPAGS

For `[Cl][Fe][Cl]` [FeCl2], the “iron bound to CgnE” value (CgnE [1]) was “No iron could be detected”.

In the case of `CC[C@H](C)[C@H](NC)C(=O)N[C@@H]1C(=O)N2[C@H](C(=O)O)[C@@H](OC(N)=O)[C@@H]3c4ccccc4N([C@@H]1c1ccc(O)cc1)[C@@H]32` [compound 1, crocagin A], the “inhibition of CsrA” value (CsrA) is listed as “inhibits”.

With `O=S(=O)(F)Cc1ccccc1` [phenylmethylsulfonyl fluoride] the “covalent labeling of CgnD” value (CgnD [2]) was “inability to label CgnD”.

With “Ile-Tyr-Trp [core peptide, three-amino-acid core peptide of CgnA (Ile-Tyr-Trp for crocagin)]” the “turnover of the core peptide with leader peptide in trans” value (CgnB, CgnC and CgnE; CgnB–CgnC–CgnE reaction, leader peptide added in trans) was “marginal”.

For MTMKKTIKQISAGDRSKKGNIYW [CgnA], the “CgnA–CgnB interaction relative to CgnA–CgnE” value (CgnB; MST KD 10.5 vs 1.8 µM) was “five times weaker”, the “CgnA–CgnB KD relative to SPR value” (CgnB; MST vs surface plasmon resonance of ref 24) was “approximately one order of magnitude lower” and the Kd (CgnB; MST, Monolith NT 115, RED-NHS label, CgnB titrated, three independent samples, mean ± SD, read-out: KD (affinity) of CgnA–CgnB) was 10.5 µM. The “affinity of CgnA–CgnB in presence of CgnE” value (CgnB; MST, CgnE 250 µM constant, CgnB titrated) was “No binding; also recorded: we did not observe binding”, the “affinity of CgnA–CgnC” value (CgnC) was “No binding; also recorded: not CgnC, were able to bind CgnA” and the “binding to CgnD” value (CgnD [3]) was “unable to detect binding”. For the same compound, the Kd (CgnE [4]; Monolith NT 115, for CgnA: CgnE titrated, three independent samples, mean ± SD, read-out: KD (affinity) to CgnE) was 1800 nM, the “weaker binding to CgnE than CgnA” value (CgnE [4]; leader peptide vs CgnA) was about 300 times and the “processing by CgnB, CgnC and CgnE (product formation/turnover)” value (CgnB, CgnC and CgnE; 50 µM CgnA, 10 µM CgnB, 5 µM CgnC, 5 µM CgnE, 4 mM ascorbic acid, 2.5 mM FeCl2, 1 mM 2-oxoglutaric acid, pH 7.4, 37 °C, 2 h, LC-MS) was “formation of a major product with high turnover; also recorded: consumption of CgnA (magenta) and the formation of a major product (+14 Da, blue) as well as minor products (+16 Da, green; +30 Da”. For the same compound, the “product formation with CgnB and CgnC” value (CgnB, CgnC and CgnE; 50 µM CgnA, 10 µM CgnB, 5 µM CgnC, cofactors, 37 °C, 2 h) was “two additional product peaks detected when compared to CgnA–CgnE or CgnA–CgnC reactions”, the “product formation with CgnC and CgnE” value (CgnB, CgnC and CgnE; CgnA + CgnC + CgnE with cofactors) was “formation of an additional, minor peak with a mass shift of +28 Da” and the “product formation with CgnC and cofactors” value (CgnB, CgnC and CgnE; CgnA + CgnC + FeCl2, ascorbic acid, α-ketoglutarate) was “a new peak with a mass suggestive of hydroxylation (+16 Da), but the predominant peak remained unmodified CgnA; also recorded: formation of a minor +16 Da species”. For the same compound, the “product formation with CgnC, no cofactors” value (CgnB, CgnC and CgnE; CgnA + CgnC without FeCl2, ascorbic acid and α-ketoglutarate) was “did not lead to observable product formation” and the “product formation without CgnC” value (CgnB, CgnC and CgnE; CgnA with CgnB, CgnE or both, LC-MS) was “did not result in any observable product peak”.
